This is an account of results in PubChem BioAssay (NCI).

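Compound exposure: 48 hours, 5 concentrations, 96-well plates. TGI marks complete inhibition of growth.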

Some test systems named below: 786-0 renal; CCRF-CEM leukemia; K-562 leukemia; MDA-MB-435; OVCAR-3 ovarian; SF-539 CNS; SW-620 colon; TK-10 renal; U251 CNS; UO-31 renal.
Holding throughout (test): growth of human tumour cells (NCI), 48 h

Regarding `COc1ccc(CNC(=O)[C@H](Cc2ccc(O)cn2)NC(C)=O)cc1`, the TGI in the test with 786-0 renal, in the test with CCRF-CEM leukemia, in the test with K-562 leukemia, in the test with MDA-MB-435, in the test on OVCAR-3 ovarian and in the test with SF-539 CNS was greater than 100 µM in each case. Moreover, the TGI in the test on SW-620 colon, with TK-10 renal, in the test on U251 CNS and with UO-31 renal was greater than 100 µM each time.

As for `NC(N)=NS(=O)(=O)c1ccc(NC(=O)c2ccc3[nH]c4ccccc4c(=O)c3c2)cc1`, the TGI with 786-0 renal, with CCRF-CEM leukemia, in the test on K-562 leukemia, in the test with MDA-MB-435, in the test on OVCAR-3 ovarian and with SF-539 CNS was greater than 100 µM throughout. For the same molecule, the TGI in the test on SW-620 colon, in the test with TK-10 renal, with U251 CNS and with UO-31 renal was greater than 100 µM each time.

In the case of `O=C(O)c1ccc(Nc2nc3cc(C(F)(F)F)ccc3nc2-c2ccccc2)cc1`, the TGI with 786-0 renal is 35 µM; in the test on CCRF-CEM leukemia, greater than 100 µM; in the test on K-562 leukemia, 42.7 µM; with MDA-MB-435 it was greater than 100 µM; in the test on OVCAR-3 ovarian, 28.4 µM; in the test with SF-539 CNS, 56.4 µM. Further, the TGI was 30.9 µM in the test with SW-620 colon, 39.3 µM with TK-10 renal, 34.2 µM in the test on U251 CNS and 36.9 µM in the test on UO-31 renal.

On to `COCCOCCOCCOc1ccc(C(C#N)N(CCc2ccccc2)C(=O)c2cc(C(=O)N(CCc3ccccc3)C(C#N)c3ccc(OCCOCCOCCOC)cc3)cc(C(=O)N(CCc3ccccc3)C(C#N)c3ccc(OCCOCCOCCOC)cc3)c2)cc1` (stereo not given), for which the TGI with 786-0 renal, with CCRF-CEM leukemia, with K-562 leukemia, in the test with MDA-MB-435, in the test with OVCAR-3 ovarian and with SF-539 CNS was greater than 100 µM throughout. Further, the TGI in the test on SW-620 colon, in the test with TK-10 renal, with U251 CNS and in the test on UO-31 renal was greater than 100 µM in each case.

For `CC(=O)O[C@@H]1O[Si](C(C)(C)C)(C(C)(C)C)[C@H](C)[C@H]1C`, the TGI with 786-0 renal, with CCRF-CEM leukemia, with K-562 leukemia, in the test on MDA-MB-435, in the test with OVCAR-3 ovarian and in the test with SF-539 CNS was greater than 100 µM in each case. Further, the TGI in the test with SW-620 colon, in the test on TK-10 renal, in the test on U251 CNS and with UO-31 renal was greater than 100 µM in each case.

On to `O=S(=O)(OI(O)CC(F)(F)F)C(F)(F)F`, for which the TGI in the test with 786-0 renal, with CCRF-CEM leukemia, in the test with K-562 leukemia, in the test on MDA-MB-435, in the test with OVCAR-3 ovarian and in the test with SF-539 CNS was greater than 100 µM throughout. Moreover, the TGI in the test with SW-620 colon, in the test with TK-10 renal, in the test on U251 CNS and in the test on UO-31 renal was greater than 100 µM in each case.

Regarding `CC1(C)CN=C(Nc2ccc(F)c(F)c2)S1`, the TGI in the test on 786-0 renal, with CCRF-CEM leukemia, in the test with K-562 leukemia, with MDA-MB-435, in the test with OVCAR-3 ovarian and in the test on SF-539 CNS was greater than 100 µM each time. In addition, the TGI with SW-620 colon, in the test on TK-10 renal, in the test with U251 CNS and with UO-31 renal was greater than 100 µM each time.

With `CC(=O)Oc1c(C)c2c(c3ccccc13)OC(C)(C)C2`, the TGI with 786-0 renal is 34.3 µM; with CCRF-CEM leukemia it was greater than 100 µM; in the test on K-562 leukemia, greater than 100 µM; in the test with MDA-MB-435, 33.2 µM; in the test on OVCAR-3 ovarian, 52 µM; with SF-539 CNS, 37.3 µM. In addition, the TGI in the test on SW-620 colon turned out to be 35.8 µM; in the test on TK-10 renal, 32.9 µM; with U251 CNS, 33.4 µM; with UO-31 renal, 33.1 µM.

Consider `N#Cc1c(N)c(C#N)c2c(c1-c1ccc(Cl)cc1)COc1ccccc1-2`, for which the TGI in the test with 786-0 renal amounted to 15.1 µM; in the test with CCRF-CEM leukemia, 33 µM; with K-562 leukemia, 35.3 µM; in the test on MDA-MB-435, 99.4 µM; in the test on OVCAR-3 ovarian, 30.6 µM; in the test on SF-539 CNS, 49.1 µM. Besides, the TGI is greater than 100 µM in the test with SW-620 colon, 36.1 µM with TK-10 renal, 32.7 µM in the test on U251 CNS and 13 µM in the test with UO-31 renal.

As for `CN(C)Cc1cc(N=Nc2ccc(Cl)cc2)ccc1O`, the TGI amounted to 25.8 µM with 786-0 renal; 36.7 µM in the test on CCRF-CEM leukemia; 35.2 µM in the test with K-562 leukemia; 30.3 µM in the test on MDA-MB-435; 24.2 µM with OVCAR-3 ovarian; 34.8 µM with SF-539 CNS. The TGI in the test on SW-620 colon was 30.7 µM; with TK-10 renal, 28.4 µM; in the test with U251 CNS, 31.1 µM; in the test with UO-31 renal, 24.5 µM.

Consider `CC1OC(O[C@H]2CC[C@]3(C=O)[C@H]4CC[C@]5(C)[C@H](C6=CC(=O)OC6)CC[C@]5(O)[C@@H]4C=C[C@]3(O)C2)CC(O)C1O` (stereo not given in full), for which the TGI in the test with 786-0 renal was 0.296 µM; in the test with CCRF-CEM leukemia it was 0.82 µM; in the test on K-562 leukemia it was 9.01 µM; in the test with MDA-MB-435, 0.701 µM; in the test with OVCAR-3 ovarian, 0.583 µM; in the test on SF-539 CNS it was 0.488 µM. In addition, the TGI with SW-620 colon is 0.902 µM; in the test with TK-10 renal it was 1.64 µM; in the test on U251 CNS, 0.694 µM; with UO-31 renal, 0.546 µM.

On to `COc1ccccc1NC(=S)Nc1cc(C)ccn1`, for which the TGI in the test with 786-0 renal, with CCRF-CEM leukemia, with K-562 leukemia, in the test with MDA-MB-435, with OVCAR-3 ovarian and in the test with SF-539 CNS was greater than 100 µM each time. Besides, the TGI with SW-620 colon, in the test on TK-10 renal, with U251 CNS and in the test on UO-31 renal was greater than 100 µM throughout.

As to `COc1ccc(N2C(=O)/C(=C\c3cccc(Oc4ccccc4)c3)SC2c2ccccc2)cc1` (stereo not given), the TGI is greater than 100 µM in the test on 786-0 renal; 44.8 µM with CCRF-CEM leukemia; greater than 100 µM in the test on K-562 leukemia; greater than 100 µM with MDA-MB-435; greater than 100 µM in the test on OVCAR-3 ovarian; 55.9 µM in the test on SF-539 CNS. The TGI in the test with SW-620 colon, in the test with TK-10 renal, with U251 CNS and with UO-31 renal was greater than 100 µM in each case.
